Consider 48 compounds from patent US20060063782A1, “3-Hetero arylmethoxy ! pyridines and their analogues as p38 map kinase inhibitors” (priority 2002, published 2006).

The structures appear in SMILES notation.

The first test deals with p38 MAP kinase (Homo sapiens, UniProt Q16539). As to the kind of experiment: p38 MAP Kinase Assay (33P incorporation into myelin basic protein, filter plate). Conditions: Table 1; MKK6-activated p38, MBP substrate, 50 minutes. It counts as biochemical. The procedure: The activated p38 is then diluted 1:6 with assay buffer, and 20 μl mixed with 25 μl of MBP mix (300 μl 10×strength assay buffer, 300 μl of 10 mM DTT & 10 mM sodium orthovanadate, 1.7 ml H2O, 50 μCi γ^33P-ATP, 200 μl of myelin basic protein (MBP) (5 mg/ml)) and added to 96 well plates along with 5 μl of various dilutions of the test compound in DMSO (up to 10%). The reaction is allowed to proceed for 50 minutes before being stopped with an excess of ortho-phosphoric acid (30 μl at 2%).
p38 MAP kinase, sequence (Q16539 whole entry): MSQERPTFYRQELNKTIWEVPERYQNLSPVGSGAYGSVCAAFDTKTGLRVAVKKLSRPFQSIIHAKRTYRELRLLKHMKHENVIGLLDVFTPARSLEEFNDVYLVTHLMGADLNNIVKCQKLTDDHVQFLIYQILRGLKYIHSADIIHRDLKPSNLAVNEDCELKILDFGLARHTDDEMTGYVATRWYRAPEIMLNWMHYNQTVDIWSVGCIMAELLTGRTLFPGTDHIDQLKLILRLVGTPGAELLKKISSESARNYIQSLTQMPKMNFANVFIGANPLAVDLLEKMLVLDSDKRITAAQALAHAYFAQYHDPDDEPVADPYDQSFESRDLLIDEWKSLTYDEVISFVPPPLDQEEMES
γ^33P-ATP which remains unincorporated into the myelin basic protein is separated from phosphorylated MBP on a Millipore MAPH filter plate. The wells of the MAPH plate are wetted with 0.5% orthophosphoric acid, and then the results of the reaction are filtered with a Millipore vacuum filtration unit through the wells. Following filtration, the residue is washed twice with 200 μl of 0.5% orthophosphoric acid. Once the filters have dried, 25 μl of Microscint 20 scintillant is added, and then counted on a Packard Topcount for 30 seconds.
As usually defined, the IC50 is the concentration at which inhibition is half-maximal. Lower therefore signals greater potency in that assay. For the compound `Nc1ncccc1OCc1ccc(Cl)c(F)c1` [Compound 16, 2-amino-3-(4-chloro-3-fluorobenzyloxy)pyridine], the IC50 is < 200 µM.

For the compound `Nc1ncccc1OCc1ccccc1C(F)(F)F` [Compound 23], the IC50 was < 100 µM.

For the compound `Nc1ncccc1OCc1cccc(C(=O)NCC2CC2)c1` [Compound 34], the IC50 is < 1000 µM.

As to `O=C(Nc1ccc(Cl)c(COc2ccc(NCc3ccccc3)nc2)c1)c1cc(F)cc(N2CCOCC2)c1` [Compound 77, N-[3-(6-Benzylamino-pyridin-3-yloxymethyl)-4-chloro-phenyl]-3-fluoro-5-morpholin-4-yl-benzamide], the IC50 was < 2 µM.

Turning to `O=C(Nc1ccc(Cl)c(COc2cccnc2)c1)Oc1ccccc1` [Compound 79, [4-Chloro-3-(pyridin-3-yloxymethyl)-phenyl]-carbamic acid phenyl ester], the IC50 is < 20 µM.

Regarding `Nc1ncccc1OCc1c(F)cc(F)cc1F` [Compound 32], the IC50 was < 1000 µM.

For `COc1ccccc1COc1cccnc1N` [Compound 6, 2-amino-3-(2-methoxybenzyloxy)pyridine], the IC50 was < 1000 µM.

Regarding `NC(=O)Nc1ccc(Cl)c(COc2cccnc2)c1` [Compound 63, [4-Chloro-3-(pyridin-3-yloxymethyl)-phenyl]-urea], the IC50 was < 20 µM.

Turning to `CC(C)(C)c1ccccc1NC(=O)Nc1ccc(F)c(COc2cccnc2)c1` [Compound 78, 1-(2-tert-Butyl-phenyl)-3-[4-fluoro-3-(pyridin-3-yloxymethyl)-phenyl]-urea], the IC50 was < 20 µM.

Regarding `c1cc(COc2cccnc2)cc(COc2cccnc2)c1` [Compound 58], the IC50 was < 1000 µM.

As to `Nc1ncccc1OCc1cc(NC(=O)c2ccccc2)ccc1Cl` [Compound 57, N-[3-(2-Amino-pyridin-3-yloxymethyl)-4-chloro-phenyl]-benzamide], the IC50 was < 20 µM.

With `Nc1ncccc1OCc1cccc(OC(F)(F)F)c1` [Compound 24], the half-inhibitory concentration (IC50) is < 10000 µM.

On to `Nc1ncccc1OCc1cccc(-c2ccccc2)c1` [Compound 20], for which the IC50 is < 200 µM.

Take `Clc1cccc(Cl)c1COc1ccc(N2CCOCC2)nc1` [Compound 54]: the IC50 was < 1000 µM.

For the compound `Nc1ncccc1OCc1ccc(F)cc1Cl` [Compound 31], the IC50 was < 1000 µM.

Regarding `O=C(Nc1ccc(F)c(COc2cccnc2)c1)c1ccccc1` [Compound 59, N-[4-Fluoro-3-(pyridin-3-yloxymethyl)-phenyl]-benzamide], the half-inhibitory concentration (IC50) is < 200 µM.

With `Nc1ncccc1OCc1cccc(Cl)c1` [Compound 9, 2-amino-3-(3-chlorobenzyloxy)pyridine], the IC50 was < 1000 µM.

For the compound `CC(C)c1nnc(NC(=O)Nc2ccc(F)c(COc3cccnc3)c2)s1` [Compound 81, 1-[4-Fluoro-3-(pyridin-3-yloxymethyl)-phenyl]-3-(5-isopropyl-[1,3,4]thiadiazol-2-yl)-urea], the IC50 is < 20 µM.

Consider `Nc1ncccc1OCc1ccccc1-c1ccccc1` [Compound 2], for which the IC50 was < 10 µM.

The test is the same for the next values; noted with them: Table 2; MKK6-activated p38, MBP substrate, 50 minutes.
With `Nc1ccc(Cl)c(COc2cnccn2)c1` [Compound 91], the 50% inhibitory concentration (IC50) is < 1000 µM.

On to `CC(C)c1nnc(NC(=O)Nc2ccc(F)c(COc3cnccn3)c2)s1` [Compound 97, 1-[4-Fluoro-3-(pyrazin-2-yloxymethyl)-phenyl]-3-(5-isopropyl-[1,3,4]thiadiazol-2-yl)-urea], for which the IC50 is < 20 µM.

As for `CC(C)(C)c1ccc(-n2nc(C3CC3)cc2NC(=O)Nc2ccc(F)c(COc3cnccn3)c2)cc1` [Compound 164, 1-[2-(4-tert-Butyl-phenyl)-5-cyclopropyl-2H-pyrazol-3-yl]-3-[4-fluoro-3-(pyrazin-2-yloxymethyl)-phenyl]-urea], the IC50 was < 200 µM.

Consider `c1cc(COc2cnccn2)cc(Nc2nc3ccccc3o2)c1` [Compound 109], for which the IC50 was < 200 µM.

Consider `NS(=O)(=O)CCNC(=O)c1cnc(OCc2c(Cl)cccc2Cl)cn1` [Compound 138, 5-(2,6-dichloro-benzyloxy)-pyrazine-2-carboxylic acid (2-sulfamoyl-ethyl)-amide], for which the IC50 was < 1000 µM.

With `Clc1cnc(OCc2c(Cl)cccc2Cl)cn1` [Compound 88], the IC50 was < 1000 µM.

As for `O=C(Nc1ccc(F)c(COc2cnccn2)c1)Nc1nnc(C2CCCO2)s1` (stereo not drawn) [Compound 120, 1-[4-Fluoro-3-(pyrazin-2-yloxymethyl)-phenyl]-3-[5-(tetrahydro-furan-2-yl)-[1,3,4]thiadiazol-2-yl]-urea], the IC50 is < 2 µM.

As to `Clc1cccc(Cl)c1COc1cnc(NCc2ccccc2)cn1` [Compound 141, Benzyl-[5-(2,6-dichloro-benzyloxy)-pyrazin-2-yl]-amine], the IC50 was < 20 µM.

As to `O=C(Nc1ccc(F)c(COc2cnccn2)c1)Nc1nnc(CC2CC2)s1` [Compound 96, 1-(5-Cyclopropylmethyl-[1,3,4]thiadiazol-2-yl)-3-[4-fluoro-3-(pyrazin-2-yloxymethyl)-phenyl]-urea], the IC50 is < 2 µM.

Regarding `O=C(Nc1ccc(F)c(COc2cnccn2)c1)Nc1cc(C2CCCO2)nn1-c1ccc(F)cc1` (stereo not drawn) [Compound 161, 1-[2-(4-Fluoro-phenyl)-5-(tetrahydro-furan-2-yl)-2H-pyrazol-3-yl]-3-[4-fluoro-3-(pyrazin-2-yloxymethyl)-phenyl]-urea], the IC50 is < 2 µM.

As for `CC(C)(CO)NC(=O)Nc1cnc(OCc2c(Cl)cccc2Cl)cn1` [Compound 176], the IC50 is < 2 µM.

Regarding `Nc1nccnc1OCc1c(Cl)cccc1Cl` [Compound 90], the concentration for half-maximal inhibition (IC50) was < 1000 µM.

`CCNC(=O)c1cnc(OCc2c(Cl)cccc2Cl)cn1` [Compound 111, 5-(2,6-Dichloro-benzyloxy)-pyrazine-2-carboxylic acid ethylamide]: the IC50 is < 1000 µM.

Regarding `CC(C)(C)c1cc(NC(=O)Nc2ccc(F)c(COc3cnccn3)c2)n(-c2ccc(Cl)nn2)n1` [Compound 156, 1-[5-tert-Butyl-2-(6-chloro-pyridazin-3-yl)-2H-pyrazol-3-yl]-3-[4-fluoro-3-(pyrazin-2-yloxymethyl)-phenyl]-urea], the 50% inhibitory concentration (IC50) is < 2 µM.

Regarding `CC(C)(C)c1csc(NC(=O)Nc2ccc(F)c(COc3cnccn3)c2)n1` [Compound 100, 1-(4-tert-Butyl-thiazol-2-yl)-3-[4-fluoro-3-(pyrazin-2-yloxymethyl)-phenyl]-urea], the half-inhibitory concentration (IC50) was < 20 µM.

Turning to `O=C(Nc1ccc(F)c(COc2cnccn2)c1)Nc1cc(-c2ccc(Cl)cc2)nn1-c1ccc(F)cc1` [Compound 132, 1-[5-(4-Chloro-phenyl)-2-(4-fluoro-phenyl)-2H-pyrazol-3-yl]-3-[4-fluoro-3-(pyrazin-2-yloxymethyl)-phenyl]-urea], the IC50 was < 2 µM.

Regarding `COc1cc(C(=O)Nc2ccc(F)c(COc3cnccn3)c2)nc(Cl)n1` [Compound 105, 2-Chloro-6-methoxy-pyrimidine-4-carboxylic acid [4-fluoro-3-(pyrazin-2-yloxymethyl)-phenyl]-amide], the IC50 is < 1000 µM.

For `CC(C)(C)n1nc(-c2ccccc2)cc1NC(=O)Nc1ccc(F)c(COc2cnccn2)c1` [Compound 129], the IC50 is < 20 µM.

On to `O=C(Nc1ccc(F)c(COc2cnccn2)c1)Nc1nnc(-c2ccccc2)s1` [Compound 115, 1-[4-Fluoro-3-(pyrazin-2-yloxymethyl)-phenyl]-3-(5-phenyl-[1,3,4]thiadiazol-2-yl)-urea], for which the IC50 was < 200 µM.

Consider `CC(C)(C)c1cc(NC(=O)Oc2cccc(COc3cnccn3)c2)n(-c2ccccc2)n1` [Compound 142], for which the IC50 is < 200 µM.

Regarding `O=C(CN1CCOCC1)Nc1cnc(OCc2c(Cl)cccc2Cl)cn1` [Compound 171], the IC50 was < 200 µM.

For `CC(C)(C)c1cc(NC(=O)Nc2ccc(F)c(COc3cnccn3)c2)n(-c2ccc(S(C)(=O)=O)cc2)n1` [Compound 163, 1-[5-tert-Butyl-2-(4-methanesulfonyl-phenyl)-2H-pyrazol-3-yl]-3-[4-fluoro-3-(pyrazin-2-yloxymethyl)-phenyl]-urea], the IC50 was < 2 µM.

As to `O=C(Nc1ccc(F)c(COc2cnccn2)c1)Oc1cccc(C(F)(F)F)c1` [Compound 99, [4-Fluoro-3-(pyrazin-2-yloxymethyl)-phenyl]-carbamic acid 3-trifluoromethyl-phenyl ester], the IC50 is < 20 µM.

Take `O=C(Nc1ccc(F)c(COc2cnccn2)c1)c1cccc(S(=O)(=O)N2CCOCC2)c1` [Compound 98, N-[4-Fluoro-3-(pyrazin-2-yloxymethyl)-phenyl]-3-(morpholine-4-sulfonyl)-benzamide]: the concentration for half-maximal inhibition (IC50) was < 2 µM.

With `CC(C)(C)c1cc(NC(=O)Nc2ccc(F)c(COc3cnccn3)c2)n(Cc2ccccc2)n1` [Compound 153, 1-(2-Benzyl-5-tert-butyl-2H-pyrazol-3-yl)-3-[4-fluoro-3-(pyrazin-2-yloxymethyl)-phenyl]-urea], the IC50 is < 2 µM.

Regarding `Clc1cccc(Cl)c1COc1cnccn1` [Compound 87], the IC50 was < 200 µM.

`CN1CCN(CC(=O)Nc2cnc(OCc3c(Cl)cccc3Cl)cn2)CC1` [Compound 170]: the IC50 is < 20 µM.

As to `O=C(Nc1ccc(F)c(COc2cnccn2)c1)c1ccc(-c2ccccc2)cc1` [Compound 133, Biphenyl-4-carboxylic acid [4-fluoro-3-(pyrazin-2-yloxymethyl)-phenyl]-amide], the IC50 was < 200 µM.

Regarding `O=C(Nc1ccc(F)c(COc2cnccn2)c1)Nc1nnc(Cc2ccccc2)s1` [Compound 121, 1-(5-Benzyl-[1,3,4]thiadiazol-2-yl)-3-[4-fluoro-3-(pyrazin-2-yloxymethyl)-phenyl]-urea], the 50% inhibitory concentration (IC50) is < 2 µM.
